Entries after “also recorded” stand apart in the source; their conditions may differ.
What was measured:
A549 = experiment: Efficacy at different doses in human non-small cell lung cancer A549 model; format: in vivo; settings: FIG. 6
Text: In some examples and many other tumor treatment modes of the present invention, efficacies of Succinyl-AANL-DOX (SEQ ID NO: 2) and EMC-AANL-DOX (SEQ ID NO: 2) were also studied and compared according to the same method as described above. […] Thus, EMC-AANL-DOX (SEQ ID NO: 2) could satisfy our requirements on clinical development.

4T1 cells = experiment: Tumor growth inhibition in 4T1 breast cancer model in BALB/C mice; format: in vivo
Text: Test purpose: to investigate the anti-tumor efficacy of Succinyl-AANL-DOX (SEQ ID NO: 2) and EMC-AANL-DOX (SEQ ID NO: 2) in a 4T1 breast cancer treatment model from BALB/C mice.
Treatment drug: Succinyl-AANL-DOX (SEQ ID NO: 2) and EMC-AANL-DOX (SEQ ID NO: 2) injections, and doxorubicin hydrochloride injection, diluted to corresponding concentrations by physiological saline when testing.
1) 4T1 cells were purchased from American type culture collection (ATCC) and identified according the specification provided by ATCC.
2) Production of tumor. 10^6 4T1 cells were subcutaneously injected to the back of the BALB/C mice. Mice were randomly grouped after the diameter of the tumor reached about 0.3 cm to 0.4 cm. Then treatment began.
Succinyl-AANL-DOX (SEQ ID NO: 2), Legubicin and EMC-AANL-DOX (SEQ ID NO: 2) were intraperitoneally injected. The dose of Succinyl-AANL-DOX (SEQ ID NO: 2), Legubicin and EMC-AANL-DOX (SEQ ID NO: 2) were all 28.16 μmol/kg. The dose of doxorubicin hydrochloride was 3.448 μmol/kg. The control group was administered with physiological saline. The drugs were administered twice weekly for three weeks.
4) Results and discussion.

MDA-MB231 cells = experiment: Efficacy in MDA-MB231 tumor model in nude mice; format: in vivo; settings: i.p. twice weekly for three weeks, S1, S2 30 mg/kg, doxorubicin hydrochloride 4 mg/kg
Text: Test purpose: to investigate the anti-tumor efficacy of S1 and S2 via mouse tumor treatment model.
Test drug: S1 and S2 injections, and doxorubicin hydrochloride injection, diluted to corresponding concentrations by physiological saline when testing.
1. Animal: nude mice of 6-8 weeks old, all female.
1) MDA-MB231 cells were purchased from American type culture collection (ATCC) and identified according the specification provided by ATCC.
2) Production of tumor. […] Mice were randomly grouped after the diameter of the tumor reached about 0.3 cm to 0.4 cm. Then treatment began.
According to the clinical application of S1 and S2, drugs were intraperitoneally injected. A dose of 30 mg/kg (<1/2 MTD) was used for the S1 treatment group, 30 mg/kg (<1/2 MTD) for the S2 treatment group, and 4 mg/kg (>1/2 MTD) for doxorubicin hydrochloride. The control group was administered with physiological saline. The drugs were administered twice weekly for three weeks.

[1] = Distribution of drug in tumor and heart tissues after intravenous injection; format: in vivo; settings: for Distribution in tumor tissue sections (fluorescence microscope): 12 hours after intravenous injection of 10 μmol/kg, compared with Succinyl-AANL-DOX, FIG. 3; for Accumulation in the heart tissue / Accumulation in the tumor tissue: FIG. 4; for Accumulation in the tumor tissue: compared with doxorubicin and Succinyl-AANL-DOX
Text: After intravenous injection of EMC-AANL-DOX (SEQ ID NO: 2), EMC-AANL-DOX (SEQ ID NO: 2) could accumulate at the tumor site due to the targeting property of the EMC group, as compared with Succinyl-AANL-DOX (SEQ ID NO: 2) and more EMC-AANL-DOX (SEQ ID NO: 2) were distributed in the tumor tissue. Since the drug itself could produce fluorescence, we detected distribution of Succinyl-AANL-DOX (SEQ ID NO: 2) and EMC-AANL-DOX (SEQ ID NO: 2) in the tumor tissue sections by fluorescence microscope 12 hours after intravenous injection of 10 μmol/kg Succinyl-AANL-DOX (SEQ ID NO: 2) and EMC-AANL-DOX (SEQ ID NO: 2). The nucleus was stained by 4′,6-diamidino-2-phenylindole (DAPI).

Cathepsin B = Cathepsin B (Homo sapiens, UniProt P07858); experiment: In vitro binding to cathepsin absorbed on a 96-well plate (fluorescence of bound drug); settings: cathepsin absorbed on 96-well plate, blocked with BSA, FIG. 1
Text: The R6 group allows the drug to be able to target cathepsin (Cathepsin B) in the tumor microenvironment and inhibit the activity of cathepsin necessary for tumor growth, development and metastasis. […] The R6 group also allows the drug to have an additional function of targeting tumor, thus the drug has two targeted effects.
The test method was described as follows. Cathepsin was absorbed on a 96-well plate and blocked with BSA. Succinyl-AANL-DOX (SEQ ID NO: 2), S1 and a mixture of S1 and E-64 (an inhibitor for specific binding of cathepsin) were added to allow them to bind to the cathepsin on the 96-well plate. The unbound drugs were removed and the fluorescence of the bound drug was detected.

BALB/C mice = experiment: Maximum tolerated dose (MTD) / acute toxicity of a single injection in mice; settings: single injection; for Mortality rate (%) / Number of dead animal: 6 female BALB/C mice
Text: Test purpose: to investigate the acute toxicity of the subject new drug formulation via MTD assay by intravenous administration to mice.
Test drug: S1 and S2 injections, diluted to the corresponding concentrations with physiological saline when tested.
Animal: the first class BALB/C mice, weighing 19-21 g and all mice being female.
Method and results: 36 female BALB/C mice weighing 19-21 g were randomly divided into 6 groups according to their body weights, with 6 mice in each group. […] Control tests were performed by injecting 0.2 ml physiological saline or doxorubicin hydrochloride. […] Blood samples were taken on the 3, 5 and 14 days for counting the whole blood cells. Animals were anatomized on day 14 to take the heart, liver, kidney, lung, spleen, and pancreas for HE staining.
The MTD for intravenous administration of a test drug is an important reference index for drug toxicity.

[2] = Metabolic half-life in mice blood

COc1cccc2c1C(=O)c1c(O)c3c(c(O)c1C2=O)CC(O)(C(=O)CO)CC3OC1CC(NC(=O)C(CC(C)C)NC(=O)C(CC(N)=O)NC(=O)C(C)NC(=O)C(C)NC(=O)CCCCCN2C(=O)C=CC2=O)C(O)C(C)O1 (stereo not shown) [Example S1, EMC-AANL-Doxorubicin]
Effect on tumor in A549 model (in words) (A549): could completely kill the tumor, with no recurrence of tumor in the later stage of the treatment
Inhibitory effect on tumor growth (in words) (4T1 cells; 28.16 μmol/kg i.p. twice weekly for three weeks, compared with Succinyl-AANL-DOX, Dox and BOC-AANL-DOX, FIG. 5): could significantly improve the inhibitory effect on tumor growth; also recorded: exhibits a superior inhibitory effect on tumor growth
Inhibitory effect on tumor growth relative to Succinyl-AANL-DOX (4T1 cells; 4T1 breast cancer model, etc.): 4-5 folds
Inhibitory rate of tumor, 20 days (MDA-MB231 cells; 20 days): 25.8%
Size of tumor (mm^3), 20 days (MDA-MB231 cells; 20 days, nude mice): 287.42 ± 30.52 mm^3
Inhibitory rate of tumor, 38 days (MDA-MB231 cells; 38 days): 68.5%
Size of tumor (mm^3), 38 days (MDA-MB231 cells; 38 days, nude mice): 678.49 ± 37.7 mm^3
Distribution in tumor tissue sections (fluorescence microscope) [1]: have the effect to accumulate the drug at tumor cell
Distribution in tumor tissue sections (fluorescence microscope) ([1]; listed as EMC-AANL-DOX): significantly more
Accumulation in the heart tissue [1]: reduced accumulation in the heart
Accumulation in the heart tissue ([1]; listed as EMC-AANL-DOX): no accumulation in the heart tissue
Accumulation in the tumor tissue [1]: accumulation of S1 in the tumor site
Accumulation in the tumor tissue ([1]; listed as EMC-AANL-DOX): accumulated in a higher concentration in the tumor tissue
Binding to cathepsin (Cathepsin B): bound to the cathepsin; also recorded: can bind cathepsin
Binding to cathepsin (Cathepsin B; listed as EMC-AANL-DOX): can efficiently bind to Cathepsin B
Mortality rate (%) (BALB/C mice; 50 mg/kg): 0%
Number of dead animal (BALB/C mice; 50 mg/kg, observed 17 days): 0
Mortality rate (%) (BALB/C mice; 100 mg/kg): 0%
Number of dead animal (BALB/C mice; 100 mg/kg): 0
Mortality rate (%) (BALB/C mice; 150 mg/kg): 0%
Number of dead animal (BALB/C mice; 150 mg/kg): 0
Abnormal behaviors and death observed (BALB/C mice; 150 mg/kg, mice): no pilo-erection, hair tousle and lackluster, lethargy, stoop, irritable reaction and death were observed
Mortality rate (%) (BALB/C mice; 200 mg/kg): 33.3%
Number of dead animal (BALB/C mice; 200 mg/kg): 2
Mortality rate (%) (BALB/C mice; 300 mg/kg): 100%
Number of dead animal (BALB/C mice; 300 mg/kg): 5
MTD (BALB/C mice; mice): > 100 µmol/kg
Metabolic half-life in the mice blood [2]: above 74 hours
